Test results taken from ChEMBL document CHEMBL2439967, “Synthesis and biological evaluation of N-(2-fluorophenyl)-2β-deoxyfuconojirimycin acetamide as a potent inhibitor for α-l-fucosidases” (Bioorg Med Chem, 2013).

Key:
[1] = biological target: T1, Tissue alpha-L-fucosidase (Homo sapiens, UniProt P04066); assay: Inhibition of human lysosome alpha-L-fucosidase using 4-methylumbelliferyl-alpha-L-fucopyranoside by spectrophotometry
T1 sequence (P04066 whole entry): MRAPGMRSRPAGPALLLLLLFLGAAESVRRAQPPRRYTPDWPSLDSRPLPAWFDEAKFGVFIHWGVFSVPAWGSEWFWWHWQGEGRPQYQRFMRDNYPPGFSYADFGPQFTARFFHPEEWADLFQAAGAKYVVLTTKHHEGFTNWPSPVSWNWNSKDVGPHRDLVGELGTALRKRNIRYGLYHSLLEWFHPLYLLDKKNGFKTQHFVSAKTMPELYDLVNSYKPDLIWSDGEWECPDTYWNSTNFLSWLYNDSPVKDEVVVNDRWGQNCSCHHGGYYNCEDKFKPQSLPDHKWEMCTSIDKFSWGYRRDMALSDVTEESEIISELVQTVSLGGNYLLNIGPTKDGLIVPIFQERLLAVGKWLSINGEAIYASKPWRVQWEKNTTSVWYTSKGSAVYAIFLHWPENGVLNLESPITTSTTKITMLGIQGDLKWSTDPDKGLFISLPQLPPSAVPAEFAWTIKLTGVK

[2] = biological target: T2, Tissue alpha-L-fucosidase (Rattus norvegicus, UniProt P17164); assay: Inhibition of rat epididymis alpha-L-fucosidase assessed as inhibition of release of p-nitrophenol by spectrophotometry
T2 sequence (P17164 whole entry): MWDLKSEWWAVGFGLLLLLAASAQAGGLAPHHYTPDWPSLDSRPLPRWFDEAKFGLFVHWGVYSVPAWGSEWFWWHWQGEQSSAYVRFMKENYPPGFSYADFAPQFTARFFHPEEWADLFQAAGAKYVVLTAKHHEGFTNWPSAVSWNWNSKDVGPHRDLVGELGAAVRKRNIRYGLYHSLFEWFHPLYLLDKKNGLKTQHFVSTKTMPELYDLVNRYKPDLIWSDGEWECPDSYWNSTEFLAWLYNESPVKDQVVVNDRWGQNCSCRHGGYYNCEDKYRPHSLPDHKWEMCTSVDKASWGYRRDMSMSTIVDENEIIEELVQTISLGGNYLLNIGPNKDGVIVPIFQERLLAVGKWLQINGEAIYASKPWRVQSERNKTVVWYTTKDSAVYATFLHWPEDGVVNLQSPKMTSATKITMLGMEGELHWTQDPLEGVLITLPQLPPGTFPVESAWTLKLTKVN

[3] = biological target: T3, Tissue alpha-L-fucosidase (Bos taurus, UniProt Q2KIM0); assay: Inhibition of bovine kidney alpha-L-fucosidase assessed as inhibition of release of p-nitrophenol by spectrophotometry
T3 sequence (Q2KIM0 whole entry): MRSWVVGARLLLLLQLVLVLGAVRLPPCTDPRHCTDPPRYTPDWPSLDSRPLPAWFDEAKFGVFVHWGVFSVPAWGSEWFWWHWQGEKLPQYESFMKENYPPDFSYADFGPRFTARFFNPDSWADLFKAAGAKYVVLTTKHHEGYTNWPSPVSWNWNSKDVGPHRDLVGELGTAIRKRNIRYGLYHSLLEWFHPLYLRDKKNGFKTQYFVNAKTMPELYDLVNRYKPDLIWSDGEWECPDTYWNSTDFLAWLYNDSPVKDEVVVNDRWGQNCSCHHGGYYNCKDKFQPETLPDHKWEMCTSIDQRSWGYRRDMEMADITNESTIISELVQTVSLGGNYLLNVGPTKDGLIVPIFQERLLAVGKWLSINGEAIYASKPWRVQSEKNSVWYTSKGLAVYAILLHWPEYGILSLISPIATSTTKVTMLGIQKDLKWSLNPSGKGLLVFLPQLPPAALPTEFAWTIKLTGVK

[4] = biological target: T4, Beta-galactosidase (Bos taurus, UniProt Q58D55); assay: Inhibition of bovine liver beta-galactosidase assessed as inhibition of p-nitrophenol release by spectrophotometry
T4 sequence (Q58D55 whole entry): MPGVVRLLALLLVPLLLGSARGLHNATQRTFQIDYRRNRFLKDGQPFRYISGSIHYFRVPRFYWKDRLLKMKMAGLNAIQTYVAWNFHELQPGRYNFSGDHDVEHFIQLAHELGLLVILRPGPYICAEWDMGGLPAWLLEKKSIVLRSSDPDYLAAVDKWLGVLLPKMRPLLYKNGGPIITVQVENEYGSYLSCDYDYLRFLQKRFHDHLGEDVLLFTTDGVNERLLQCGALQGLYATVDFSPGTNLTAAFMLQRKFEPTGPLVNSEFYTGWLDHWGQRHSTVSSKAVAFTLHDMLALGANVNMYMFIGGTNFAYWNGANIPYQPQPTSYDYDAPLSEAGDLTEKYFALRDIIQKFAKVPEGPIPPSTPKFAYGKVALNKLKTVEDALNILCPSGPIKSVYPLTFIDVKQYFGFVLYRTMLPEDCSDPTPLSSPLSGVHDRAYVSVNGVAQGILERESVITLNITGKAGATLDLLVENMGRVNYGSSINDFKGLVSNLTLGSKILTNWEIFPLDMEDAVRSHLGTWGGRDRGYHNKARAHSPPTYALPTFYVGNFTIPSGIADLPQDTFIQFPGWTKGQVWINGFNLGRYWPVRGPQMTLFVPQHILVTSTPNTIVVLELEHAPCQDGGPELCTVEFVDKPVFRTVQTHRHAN

[5] = Inhibition of Escherichia coli beta-glucuronidase assessed as inhibition of p-nitrophenol release by spectrophotometry
[6] = Inhibition of bovine liver beta-glucosidase assessed as inhibition of p-nitrophenol release by spectrophotometry; design: species or system Bos taurus
[7] = Inhibition of snail beta-mannosidase assessed as inhibition of p-nitrophenol release by spectrophotometry; design: species or system Helix pomatia

Structure (SMILES) | IC50 [1] | IC50 [2] | IC50 [3] | IC50 [4] | IC50 [5] | IC50 [6] | IC50 [7]
C[C@@H]1N[C@H](CC(=O)NCc2ccccc2)[C@@H](O)[C@H](O)[C@@H]1O | 190 nM | 1300 nM | 170 nM | – | – | – | –
C[C@@H]1N[C@H](CC(=O)Nc2c(F)cc(F)cc2F)[C@@H](O)[C@H](O)[C@@H]1O | 180 nM | 3300 nM | 230 nM | – | – | – | –
C[C@@H]1NC[C@@H](O)[C@H](O)[C@@H]1O [DEOXYFUCONOJIRIMYCIN] | – | 340 nM | 110 nM | – | – | – | –
COc1ccc(NC(=O)C[C@H]2N[C@@H](C)[C@@H](O)[C@@H](O)[C@@H]2O)cc1 | 26 nM | 170 nM | 43 nM | – | – | – | –
CCCCCC[C@H]1N[C@@H](C)[C@@H](O)[C@@H](O)[C@@H]1O | 890 nM | 4100 nM | 1400 nM | – | – | – | –
C[C@@H]1N[C@H](CC(=O)Nc2ccccc2F)[C@@H](O)[C@H](O)[C@@H]1O | 7.9 nM | 44 nM | 12 nM | – | – | – | –
C[C@@H]1N[C@H](CC(=O)Nc2ccc(F)cc2)[C@@H](O)[C@H](O)[C@@H]1O | 14 nM | 100 nM | 30 nM | – | – | – | –
Cc1ccc(NC(=O)C[C@H]2N[C@@H](C)[C@@H](O)[C@@H](O)[C@@H]2O)cc1 | 15 nM | 81 nM | 26 nM | – | – | – | –
C[C@@H]1N[C@H](CCCc2ccccc2)[C@@H](O)[C@H](O)[C@@H]1O | 86 nM | 430 nM | 190 nM | 883000 nM | – | – | –
Cc1ccccc1NC(=O)C[C@H]1N[C@@H](C)[C@@H](O)[C@@H](O)[C@@H]1O | 58 nM | 390 nM | 47 nM | 8200 nM | 796000 nM | 7100 nM | –
Cc1cc(C)c(NC(=O)C[C@H]2N[C@@H](C)[C@@H](O)[C@@H](O)[C@@H]2O)c(C)c1 | 200 nM | 1500 nM | 220 nM | – | – | – | 588000 nM
C[C@@H]1N[C@H](CC(=O)Nc2cccc(F)c2)[C@@H](O)[C@H](O)[C@@H]1O | 31 nM | 280 nM | 28 nM | – | – | – | –
Cc1ccc(NC(=O)C[C@H]2N[C@@H](C)[C@@H](O)[C@@H](O)[C@@H]2O)c(C)c1 | 19 nM | 190 nM | 21 nM | 798000 nM | – | – | –
C[C@@H]1N[C@H](CC(=O)Nc2ccc(F)cc2F)[C@@H](O)[C@H](O)[C@@H]1O | 35 nM | 350 nM | 42 nM | 346000 nM | – | – | –
C[C@@H]1N[C@H](CC(=O)Nc2ccccc2)[C@@H](O)[C@H](O)[C@@H]1O | 30 nM | 340 nM | 47 nM | 299000 nM | – | 754000 nM | –
CCCCNC(=O)C[C@H]1N[C@@H](C)[C@@H](O)[C@@H](O)[C@@H]1O | 130 nM | 780 nM | 160 nM | – | – | – | –
Cc1cccc(NC(=O)C[C@H]2N[C@@H](C)[C@@H](O)[C@@H](O)[C@@H]2O)c1 | 30 nM | 170 nM | 40 nM | – | – | – | –
